Measurements published in patent publication US20030216319A1, “Specific autoimmune reactions against isomerised/optically inverted epitopes: application for treatment of autoimmune diseases” (priority 2000, published 2003).
*1 amine or outer side, *2 acyl side, *3 side chain or, on linkers, in order; H or OH if unused. Where no end group is shown, it is not given here. [ ]: non-standard residue; d: D form. βAsp = O=C(O)[C@H](CC(=O)[*:2])N[*:1]

Key:
[1] = system: auto-antibodies in RA sera; assay: ELISA detection of auto-antibodies in sera on Thy-GA-peptide conjugate coated plates (Example 2); format: binding, human; conditions: sera diluted one-hundred fold; MTP coated with Thy-GA conjugate 10 μg/ml; absorbency at 450 nm
Description: It was investigated whether auto-antibodies would recognise an Asn-315 derived septa-peptide and whether such auto-antibodies are a characteristic feature of rheumatoid arthritis. In order to carry out such investigations the IgG Fc Asn-315 derived (βL) septa-peptide Trp-Leu-Asp-β-Gly-Lys-Glu-Tyr, was manufactured synthetically. The peptide used was a preparation of linear (αL form) Trp-Leu-Asn-Gly-Lys-Glu-Tyr peptide heated to promote isomerisation by the following procedure. The peptide was dissolved in the buffer and heated for 4 hours at 90° C. to promote isomerisation and/or optical inversion. The resulting mix of isomerised (βL) optically inverted (αD and βD) and linear (αL) peptides were analysed by RP-HPLC using a 15-35% acetonitrile gradient in 0.1% TFA over 10 minutes with a flow rate of 1 ml/min, and the isomerisation status of the resulting peaks were studied by amino-acid analysis as described above. This peptide was dissolved at 5 mg/ml in 0.2 M Na-Phosphate pH 9.2. […]
0.5 ml thyroglobulin (30 mg/ml) in 0.1 M Na-phosphate buffer pH 8.0, was added drop-wise (over 2 minutes) and under constant mixing to 0.5 mL of the following solution: 10% GA, 40% H2O, 50% 0.2 M Na-Phosphate pH 8.0. […] The final volume was adjusted to 1500 μL and the protein concentration was determined by a BioRad protein assay performed according to the manufacturers instructions. […]

RA autoantibodies = assay: Competition ELISA: binding of RA autoantibodies to Thy-GA-Trp-Leu-*Asx-Gly-Lys-Glu-Tyr coated plates (Example 3); parameters: species or system human; conditions: competitor 50 μl of 50 μg/ml pre-incubated with serum 17 hours at 4° C.; 6 RA sera
Experimental: The Thy-GA-Trp-Leu-*Asx-Gly-Lys-Glu-Tyr conjugate was dissolved in PBS to a final concentration of 10 μg/ml, and 100 μL of this solution is pipetted into the wells of a micro-titre-plate (MTP, flat-well polysorb, Nunc). the plate was blocked as described (Bonde et al 1994), and serum samples diluted one-hundred fold in 10 mM Na-phosphate, 140 mM NaCl, 0.1% tween-20, 1% BSA pH 7.4 (assay buffer) were added. The MTP was left for one hour ±5 minutes on a rotary shaker at 20° C. The plates were washed five times in washing buffer (25 mM tris, 140 mM NaCl, 0.1% tween-20 pH 7.4), by a manual plate washer. One-hundred μL assay buffer containing a one-thousand fold dilution of Perxidase conjugated rabbit anti human λ-chains (Dako 063) and κ-chains (Dako 013) was added into each well. The MTP was again incubated for one hour ±5 minutes on a rotary mixer at 20° C. After 5 times washing, 100 μl of peroxidase substrate was added (3,3′,5,5′ tetramethylbenzidine dihydrochloride (TMB), Kirkegaard & Perry Laboratories, USA) and incubated for 15±2 minutes at room temperature (18-22° C.) in the dark. After addition of 0.18 M H2SO4, the absorbency was measured at 450 nm.
The experiment was carried out as follows. Serum samples were diluted one-hundred fold in 10 mM Na-phosphate, 140 mM NaCl, 0.1% tween-20, 1% BSA pH 7.4 (assay buffer). Two-hundred μl was added to 1.5 ml polypropylene tubes followed by addition of 50 μl of the following reagents dissolved in assay buffer at a concentration of 50 μg/ml:
The tubes were placed at 4° C. for 17 hours, and one-hundred μl of the mixture was added into MTP coated with Thy-GA-Trp-Leu-*Asx-Gly-Lys-Glu-Tyr conjugate. The assay was performed as described above under example 2.

Lewis rats [2] = assay: Induction of Experimental Autoimmune Encephalomyelitis by immunisation with MBP87-99 peptides (Example 7); format: in vivo, rat; conditions: for incidence of full-blown EAE (clinical score ≧2) / time of minimum weight / reduction of weight compared to PBS controls at minimum: Lewis rats, 200 μg peptide in CFA i.d.; for reduction of weight compared to PBS controls at minimum: 16 days post immunization
Description: Experimental Autoimmune Encephalomyelitis (EAE) is a paralytical central nervous system (CNS) disease that can be induced readily in susceptible animals by immunisation with myelin proteins. In this experiment MBP87-99 peptides (VHFFKNIVTPRTP) in linear and isomerised forms were used for induction of clinical EAE in Lewis rats.
36 female Lewis (L haplotype, Harlan) rats, 8 weeks of age were used in the experiment.
The animals were randomly assigned to one of the following three treatment groups: 1) a group receiving Asn or isoAsp MBP87-99 peptides 2) a positive control group receiving whole guinea pig MBP, and a negative control receiving PBS. The study was performed in a blinded fashion where the observer was unaware of the treatment of the animal. Below a detailed description of the three treatment groups is provided.
(§1) 1) MBP87-99 Group: Peptides were dissolved in PBS (2 mg/ml). The peptide solution was mixed 1:1 with CFA supplemented with Mycobacterium tubercolosum H37RA, 4 mg/ml and mixed until an emulgate Wars formed. 200 μl emulgate was injected per rat, intra-dermally (i.d.) in the root of the tail (containing 200 μg MBP87-99 and 400 μg Mycobacterium).
The neurological function in immunised animals was evaluated daily. The evaluation was performed blinded by an observer unaware of the treatment groups and codes used in the experiment. This evaluation was performed daily, where the clinical signs of EAE were noted. The clinical signs of EAE were scored according to the following scale: grade 0=no clinical signs, grade 1=tail paralysis or unsteady gait, grade 2=hind leg paraparesis, grade 3=hind leg paralysis, grade 4=complete paralysis (tetraplegia) and grade 5 moribound state or death.
The weight of animals was also measured on a daily basis, as one of the earliest signs of EAE is a weight reduction. The weight of the MBP and peptide immunised animals was compared to the PBS control-group.

Lewis rats [3] = assay: Oral tolerance: feeding of isoAspartyl MBP87-99 before EAE induction (Example 8); format: in vivo, rat
Experimental: 32 female Lewis (L haplotype, Harlan) rats, 8 weeks of age were used in the experiment.
as §1, with “Animals were immunised with the iso-aspartyl form of MBP87-99.” for “1) MBP87-99 Group:”, “mg/).” for “mg/ml).”, “was” for “Wars”
The solutions containing the MBP87-99 isoAspartyl peptides are fed to the animals using a plastic syringe. Control animals are given PBS alone. The effect of the oral administered peptide preparations is investigated at two dosing regimens (one dose 7 days before immunisation vs. 3 doses at one-week intervals before the immunisation. Furthermore, the effect of the dose of orally administered *Asx containing peptide on disease expression is investigated. Rats are fed various amounts of the peptide listed above 14 days before the day of immunisation (day −14) and at day −7 and 0 (day of immunisation). The rats are given either 25, 100 or 500 μg of the peptide, and eight rats are allocated to each treatment regimen as indicated in the table below.
The disease progression was monitored daily by scoring the neurological function in immunized animals as described in example 7. In addition animals were weighed daily. In addition, the animals were sacrificed sixteen days after immunisation for histopathological examination. The rat brains and spinal cords were dissected, fixed in 70% ethanol, containing 5% acetic acid and 4% formalin, dehydrated and embedded in paraffin. Multiple 5 μm thick section were prepared from cerebellum, brain stem, spinal cord C1-4 and L1-6 and stained with hematoxylin-eosin. The frequency of inflammatory infiltrates were scored, using hematoxylineosin stained section, as follows: 0 No inflammation, 1 small number of perivascular infiltration present in the tissue, 2 inflammation with several perivascular infiltrates, and 3 several perivascular infiltrates and tissue necrosis. […]

In the case of Trp-Leu-*Asx-Gly-Lys-Glu-Tyr, the “autoantibody reactivity of RA RF+ sera compared with RA RF- and control sera (ELISA signal)” value [1] is reported as “elevated autoantibody reactivity” and the “competition of binding of RA autoantibodies to Thy-GA-Trp-Leu-*Asx-Gly-Lys-Glu-Tyr coated plates” value (RA autoantibodies) is reported as “could be competed out”.
“isoAsp MBP87-99: MBP87-99 peptide (VHFFKNIVTPRTP) in isomerised form, Asn 92 giving iso-Asp (VHFFK[βAsp]IVTPRTP)” was tested, and the “incidence of full-blown EAE (clinical score ≧2)” value (Lewis rats [2]) was 25%, the “time of minimum weight” value (Lewis rats [2]) was 16 days post immunization and the “reduction of weight compared to PBS controls at minimum” value (Lewis rats [2]) was 19%. The “EAE induction (result in words)” value (Lewis rats [2]; onset, peak score day and score levels comparable to non-modified control peptide) was “induced significant EAE”, the “clinical score of all animals affected with EAE” value (Lewis rats [2]; scale grade 0-5) was ≥ 3 and the “EAE development after multiple 500 μg oral feedings” value (Lewis rats [3]; 500 μg fed at days -14, -7 and 0) was “complete suppression”. For the same substance, the “EAE development after multiple oral feedings” value (Lewis rats [3]; fed at days -14, -7 and 0 before immunisation with iso-aspartyl MBP87-99) was “complete suppression” and the “mean histological score (number of inflammation foci) compared to controls” value (Lewis rats [3]; multiple oral doses, sixteen days after immunisation, P<0.05) was “significantly reduced”.
“VHFFKNIVTPRTP [Asn MBP87-99, non-modified MBP87-99 peptide, reference compound]” was tested, and the “incidence of full-blown EAE (clinical score ≧2)” value (Lewis rats [2]) was 75%, the “time of minimum weight” value (Lewis rats [2]) was 16 days post immunization and the “reduction of weight compared to PBS controls at minimum” value (Lewis rats [2]) was 26%. The “fraction of animals affected by EAE with relatively mild symptoms (clinical score <3)” value (Lewis rats [2]; scale grade 0-5) was “one third”.
In the case of “Thy-GA-Glu-Lys-Ala-His-*Asx-Gly-Gly-Arg: another irrelevant Thy-GA conjugate [reference compound]”, the “autoantibody reactivity of RA RF+ sera compared with RA RF- and control sera (ELISA signal)” value [1] is reported as “no differentiation between the groups”.
